In ChEMBL document CHEMBL2074121, “Human dipeptide transporter, hPEPT1, stably transfected into Chinese hamster ovary cells” (Pharm Res, 1996):
Where a SMILES comes first, the peptide text is derived from it.

Target: T1, Solute carrier family 15 member 1 (Homo sapiens, UniProt P46059)
T1 sequence (P46059 whole entry): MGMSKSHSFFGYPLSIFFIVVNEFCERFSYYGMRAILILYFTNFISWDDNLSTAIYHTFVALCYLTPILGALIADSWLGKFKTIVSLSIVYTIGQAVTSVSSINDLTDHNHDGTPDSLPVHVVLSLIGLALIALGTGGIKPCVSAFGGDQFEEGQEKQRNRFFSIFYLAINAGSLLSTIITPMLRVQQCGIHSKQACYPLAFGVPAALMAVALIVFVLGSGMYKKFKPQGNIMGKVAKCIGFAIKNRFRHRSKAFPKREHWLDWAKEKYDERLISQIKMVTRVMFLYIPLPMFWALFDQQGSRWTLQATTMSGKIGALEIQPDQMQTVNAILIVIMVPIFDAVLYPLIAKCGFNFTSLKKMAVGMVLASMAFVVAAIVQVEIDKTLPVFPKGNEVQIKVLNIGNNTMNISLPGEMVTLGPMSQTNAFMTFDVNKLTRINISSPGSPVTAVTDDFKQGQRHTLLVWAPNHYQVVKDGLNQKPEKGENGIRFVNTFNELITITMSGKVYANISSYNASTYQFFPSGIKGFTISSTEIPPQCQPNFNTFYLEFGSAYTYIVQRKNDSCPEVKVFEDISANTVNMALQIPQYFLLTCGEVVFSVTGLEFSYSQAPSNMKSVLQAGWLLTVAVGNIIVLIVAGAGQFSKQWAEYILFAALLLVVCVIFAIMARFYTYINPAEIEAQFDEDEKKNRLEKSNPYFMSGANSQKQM
Test: TP_TRANSPORTER: inhibition of Gly-Sar uptake (Gly-Sar: 25000 uM) in PEPT1-expressing CHO cells
Format: functional, cell-based

Row | IC50 [µM] | Compound
1 | 63 | C[C@H](N)C(=O)N[C@@H](C)C(=O)O (H-Ala-Ala-OH)
2 | 10000 | CC1(C)S[C@@H]2[C@H](NC(=O)[C@H](N)c3ccccc3)C(=O)N2[C@H]1C(=O)O [AMPICILLIN]

Row | Compound | IC50 [µM]
3 | NCC(=O)NCC(=O)NCC(=O)O | 1400
